Assay results taken from the supplement of paper PMC10307832.

Columns and labels:
Experiment in all cases: relative viability (nuclei count vs DMSO), 5 days (fraction); higher = more cells survive
[1] = compound: CN(C)CC1=CC(=CC=C1)N=C(C2=CC=CC=C2)C3=C(NC4=C3C=CC(=C4)C(=O)N(C)C)O
Procedure, shortened: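 MetaXpress counted nuclei in 4× images of lung cancer cell lines that had been fixed, permeabilised and Hoechst-stained in one step. Before that, cells in 1536-well plates were kept overnight at 37 °C, pinned with five √10-spaced library-drug doses on vehicle-anchored plates, and cultured 5 days without medium change. Viability takes treated-well nuclei over vehicle-well nuclei and uses the median across plates. Plates were accepted only at control CV below 25% and at least one doubling.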

[2] = compound: CN(C)CC1=CC(=CC=C1)N=C(C2=CC=CC=C2)C3=C(NC4=C3C=CC(=C4)C(=O)N(C)C)O + CC(C)C[C@H](NC(=O)[C@H](Cc1ccccc1)NC(=O)c1cnccn1)B(O)O [Bortezomib] (partner 0.002 µM)
Procedure, shortened: (§1)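 Dosing by pin tool came one day after lung cancer cell lines were seeded in 1536-well plates, using either one drug or a fixed anchor-drug dose plus five library-drug doses (not always all listed) in √10 steps. After 5 days, nuclei were counted on 4× images. Relative viability is treated-well nuclei count divided by vehicle-well nuclei count, and values are medians of duplicate plates.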

[3] = compound: CN(C)CC1=CC(=CC=C1)N=C(C2=CC=CC=C2)C3=C(NC4=C3C=CC(=C4)C(=O)N(C)C)O + CC1(C)CCC(c2ccc(Cl)cc2)=C(CN2CCN(c3ccc(C(=O)NS(=O)(=O)c4ccc(N[C@H](CCN5CCOCC5)CSc5ccccc5)c(S(=O)(=O)C(F)(F)F)c4)cc3)CC2)C1 [Navitoclax] (partner 0.5 µM)
Procedure, shortened: as §1

[4] = compound: CN(C)CC1=CC(=CC=C1)N=C(C2=CC=CC=C2)C3=C(NC4=C3C=CC(=C4)C(=O)N(C)C)O + COc1cc2c(Oc3ccc(NC(=O)C4(C(=O)Nc5ccc(F)cc5)CC4)cc3F)ccnc2cc1OCCCN1CCOCC1 [Foretinib] (partner 0.25 µM)
Procedure, shortened: as §1

[5] = compound: CN(C)CC1=CC(=CC=C1)N=C(C2=CC=CC=C2)C3=C(NC4=C3C=CC(=C4)C(=O)N(C)C)O + CS(=O)(=O)CCNCc1ccc(-c2ccc3ncnc(Nc4ccc(OCc5cccc(F)c5)c(Cl)c4)c3c2)o1 [Lapatinib] (partner 2 µM)
Procedure, shortened: as §1

[6] = compound: CN(C)CC1=CC(=CC=C1)N=C(C2=CC=CC=C2)C3=C(NC4=C3C=CC(=C4)C(=O)N(C)C)O + CS(=O)(=O)N1CCN(Cc2cc3nc(-c4cccc5[nH]ncc45)nc(N4CCOCC4)c3s2)CC1 [Pictilisib] (partner 1 µM)
Procedure, shortened: as §1

[7] = compound: CN(C)CC1=CC(=CC=C1)N=C(C2=CC=CC=C2)C3=C(NC4=C3C=CC(=C4)C(=O)N(C)C)O + C[C@@H](Oc1cc(-c2cnn(C3CCNCC3)c2)cnc1N)c1c(Cl)ccc(F)c1Cl [Crizotinib] (partner 1 µM)
Procedure, shortened: as §1

[8] = compound: CN(C)CC1=CC(=CC=C1)N=C(C2=CC=CC=C2)C3=C(NC4=C3C=CC(=C4)C(=O)N(C)C)O + C[C@]1(O)C[C@@H](c2nc(-c3ccc4ccc(-c5ccccc5)nc4c3)c3c(N)nccn32)C1 [Linsitinib] (partner 1 µM)
Procedure, shortened: as §1

[9] = compound: CN(C)CC1=CC(=CC=C1)N=C(C2=CC=CC=C2)C3=C(NC4=C3C=CC(=C4)C(=O)N(C)C)O + Cc1nc(NC(=O)N2CCC[C@H]2C(N)=O)sc1-c1ccnc(C(C)(C)C(F)(F)F)c1 [Alpelisib] (partner 2 µM)
Procedure, shortened: as §1

[10] = compound: CN(C)CC1=CC(=CC=C1)N=C(C2=CC=CC=C2)C3=C(NC4=C3C=CC(=C4)C(=O)N(C)C)O + O=C(c1cc(Cc2n[nH]c(=O)c3ccccc23)ccc1F)N1CCN(C(=O)C2CC2)CC1 [Olaparib] (partner 8 µM)
Procedure, shortened: as §1

NCI-H1299
relative viability ([1]; 0.08 µM): 0.998
relative viability ([1]; 0.253 µM): 1.03
relative viability ([1]; 0.8 µM): 1.01
relative viability ([1]; 2.53 µM): 1.01
relative viability ([1]; 8 µM): 0.977
relative viability ([2]; first compound 0.08 µM): 1.02
relative viability ([2]; first compound 0.253 µM): 1.04
relative viability ([2]; first compound 0.8 µM): 1.01
relative viability ([2]; first compound 2.53 µM): 0.996
relative viability ([2]; first compound 8 µM): 0.912
relative viability ([3]; first compound 0.08 µM): 1.14
relative viability ([3]; first compound 0.253 µM): 1.05
relative viability ([3]; first compound 0.8 µM): 1.09
relative viability ([3]; first compound 2.53 µM): 1.03
relative viability ([3]; first compound 8 µM): 1.01
relative viability ([4]; first compound 0.08 µM): 1.09
relative viability ([4]; first compound 0.253 µM): 1.06
relative viability ([4]; first compound 0.8 µM): 1.14
relative viability ([4]; first compound 2.53 µM): 1.04
relative viability ([4]; first compound 8 µM): 1.08
relative viability ([5]; first compound 0.08 µM): 0.957
relative viability ([5]; first compound 0.253 µM): 0.914
relative viability ([5]; first compound 0.8 µM): 0.977
relative viability ([5]; first compound 2.53 µM): 0.875
relative viability ([5]; first compound 8 µM): 0.915
relative viability ([6]; first compound 0.08 µM): 0.509
relative viability ([6]; first compound 0.253 µM): 0.854
relative viability ([6]; first compound 0.8 µM): 0.849
relative viability ([6]; first compound 2.53 µM): 0.6
relative viability ([6]; first compound 8 µM): 0.355
relative viability ([7]; first compound 0.08 µM): 0.92
relative viability ([7]; first compound 0.253 µM): 0.93
relative viability ([7]; first compound 0.8 µM): 0.988
relative viability ([7]; first compound 2.53 µM): 0.834
relative viability ([7]; first compound 8 µM): 0.939
relative viability ([8]; first compound 0.08 µM): 1.05
relative viability ([8]; first compound 0.253 µM): 0.969
relative viability ([8]; first compound 0.8 µM): 1.02
relative viability ([8]; first compound 2.53 µM): 0.946
relative viability ([8]; first compound 8 µM): 0.972
relative viability ([9]; first compound 0.08 µM): 0.953
relative viability ([9]; first compound 0.253 µM): 1.04
relative viability ([9]; first compound 0.8 µM): 1.05
relative viability ([9]; first compound 2.53 µM): 1.04
relative viability ([9]; first compound 8 µM): 1.02
relative viability ([10]; first compound 0.08 µM): 0.982
relative viability ([10]; first compound 0.253 µM): 0.999
relative viability ([10]; first compound 0.8 µM): 0.962
relative viability ([10]; first compound 2.53 µM): 0.909
relative viability ([10]; first compound 8 µM): 0.901
